Several values for one entry are separate records, joined by “and”; a condition that tells them apart may be missing. Equal values may be shown once. Read-outs that look alike come from different tables or passages of the source.
Columns and labels:
[1] = molecular target: T1, FicD^L258D (Homo sapiens, UniProt Q9BVA6, L258D); test: Isothermal titration calorimetry (ITC) with Δ104hFicD^L258D; type: binding; settings: 4 mM MgCl2, 20 °C, 1σ error interval in parenthesis
T1 construct: soluble ER luminal domain (residues 105 to 458) of wild-type human FicD and three mutants; 6xHis-Sumo (N, cleaved yes); made in house; host or cells: Rosetta(DE3) E. coli
T1 sequence (Q9BVA6 105-458 L258D): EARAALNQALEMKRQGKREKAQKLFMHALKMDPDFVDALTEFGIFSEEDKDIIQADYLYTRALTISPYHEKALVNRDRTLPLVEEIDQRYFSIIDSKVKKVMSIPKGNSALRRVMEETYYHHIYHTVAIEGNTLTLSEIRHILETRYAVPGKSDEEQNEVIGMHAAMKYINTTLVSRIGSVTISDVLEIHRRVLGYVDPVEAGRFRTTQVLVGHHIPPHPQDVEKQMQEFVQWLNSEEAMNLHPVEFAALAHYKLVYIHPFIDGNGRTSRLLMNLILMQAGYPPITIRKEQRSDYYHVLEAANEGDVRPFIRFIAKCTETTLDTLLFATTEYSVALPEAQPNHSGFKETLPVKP
Text: To further support this notion, we used Isothermal Titration Calorimetry (ITC) to determine the Kd of FPP binding. […] In these experiments, the interaction between FPP and Mg^2+ generated endothermic peaks that interfered with detecting the interaction between FPP, Mg^2+, and FicD (Fig. 3, Upper). The stoichiometry of FPP binding to FicD was consistently <0.85, which may indicate that Mg^2+ was not saturating. Because the endothermic interaction between Mg^2+ and FPP limited the quantity of MgCl2 we could add, the measured Kd could be larger than the true value.
Fig. 3. ITC with FicD and Farnesyl-pyrophosphate. Representative ITC thermogram for FPP binding to Δ104hFicD^L258D (Upper). […] Dissociation constants (Kd) of individual replicates and global fitting of triplicate isotherms are reported with 1σ error intervals in parenthesis. TEXT PRINTED IN THE PICTURE: no label printed: Kd (nM): 32.3 (15.6, 54.9) (Replicate 1); Kd (nM): 25.6 (10.1, 47.7) (Replicate 2); Kd (nM): 45.2 (29.4, 68.8) (Replicate 3); Kd (nM): 60.3 (23.1, 126.3) (Global) DOUBTS OF THE COPYIST ABOUT THIS PICTURE: The picture prints no substance label; the table rows are replicates and a global fit of one measurement, so all four Kd values are given under one unlabeled substance. […]
Isothermal Titration Calorimetry
Proteins were dialyzed against 25mM HEPES pH 7.4/100mM KCl/10% glycerol prior to titration.
Dialyzed proteins were then spun down at 21,000G for 15 minutes at 4C to remove trace insoluble material. The protein concentration was measured spectrophotometrically and then diluted to working concentration with 25mM HEPES pH 7.4/100mM KCl/10% glycerol. MgCl2 was added to proteins to a final concentration of 4mM. ITC experiments were performed in a Micro-Cal PEAQ-ITC (Malvern Panalytical, Worcestershire, UK) calorimeter with a stirred 206.2 μL reaction cell held at 20 °C. 250μM FPP was titrated into 25uM Δ104hFicL258D with 750rpm stirring. The first injection was 0.5 μL, followed by twenty 1.9 μL injections. ITC data were integrated and baseline corrected using NITPIC 2.1.5 (10, 11). Integrated data was globally analyzed in SEDPHAT 15.b (12) using a model considering a single class of binding sites. […]
10% Lithium dodecyl sulfate, 50% glycerol, 50mM DTT, 0.05% Bromophenol blue) and then heated […]
For deAMPylation assays with FicD and BiP, Δ26hBiPT229A was in-vitro AMPylated by […]
5mM MgCl2, 500uM ATP, 0.5% CHAPS, 1mM DTT. After one hour of incubation at 30-37C, the entire reaction mix was transferred into an Amicon 0.5mL 50kDa MWCO concentrator (cat no.
7.4/150mM NaCl/10% glycerol/1mM DTT was added to the concentrated AMPylation reaction and then spun down again at 14,000 x g at 4C for 5-10 minutes. This step was repeated four times to buffer exchange AMPylated Δ26hBiPT229A.
Δ104hFicDWT and Δ26hBiPT229A-AMP were combined at a ratio of 1:80 in buffer containing 25mM HEPES pH 7.4, 100mM KCl, 5mM MgCl2, 1mM DTT and the indicated small molecule where applicable. Reactions were incubated at 37C for 1 hour and stopped by the addition EDTA. 5X SDS sample buffer (250mM Tris pH 6.8, 10% Lithium dodecyl sulfate, 50% glycerol, 50mM DTT, 0.05% Bromophenol blue) was then added to the reactions and reactions were heated for 5 minutes at […]
For in-vitro AMPylation assays with VopS and CDC42, Δ30VopS and GST-CDC42 – provided by a previous lab member – were combined at a 1:80 molar ratio in 50mM Tris pH 7.4/100mM NaCl/1mM DTT in the presence of GPP or FPP, where applicable. […]

[2] = molecular target: T1, FicD^L258D; test: Differential scanning fluorimetry (DSF) thermal shift with FicD^L258D; type: binding; settings: FicD^L258D, 5 mM MgCl2; read-out: EC50 of DSF dose-response (ΔTm)
Protocol: Differential Scanning Fluorimetry
Thermal shift assays were performed in Biorad CfX384 Touch Real-Time PCR Detection System […]
Reactions contained 50mM HEPES pH 7.4, 200mM NaCl, 200mM KCl, 200uM DTT, 5X Invitrogen Sypro Orange (Cat no. S6650), 8-9μM protein, and indicated nucleotide, cofactor, or small molecule in a total volume of 20uL. For every experiment ‘no protein’ controls were also included with the same reaction conditions. All reactions were performed in technical triplicates. Sealed plates containing reaction mixes were centrifuged for 1-5 min at 1000 RPM prior to temperature scanning (FRET channel), which was performed from 6°C […]
DSF data was analyzed with traditional methods automated in a Python package (https://pypi.org/project/instawell/). Briefly, for each temperature, the RFU values of technical triplicates are averaged. For each timepoint, the background fluorescence was subtracted using the RFU values of the ‘no protein’ control. […]
calculated. The melting temperature (Tm) is defined as the first derivative peak value. Data

CC(C)=CCC/C(C)=C/CC/C(C)=C/CO[P@@](=O)(O)OP(=O)(O)O (stereo in doubt) [FPP, farnesyl-pyrophosphate]
Kd ([1]; read-out: Kd (ITC), Replicate 1): 32.3 nM | Kd ([1]; read-out: Kd (ITC), Replicate 2): 25.6 nM | Kd ([1]; read-out: Kd (ITC), Replicate 3): 45.2 nM | Kd ([1]; read-out: Kd (ITC), global fitting of triplicate isotherms): ~60 nM and 60.3 nM and 60 nM | EC50 [2]: 9600 nM

Reference: publication PMC12974487, “Inhibition of FicD-mediated AMPylation and deAMPylation by isoprenoid diphosphates” (Proceedings of the National Academy of Sciences of the …, 2026)
